From patent US7473700B2, “1,2,4-triazole derivatives, processes for the preparation thereof, and pharmaceutical compositions containing the same” (CJ Corporation, priority 2002, dated 2009)

What was measured:
COX-2 = biological target: T1, COX-2 (Mus musculus, UniProt Q05769); assay: Assay for the COX-2 inhibitory activity using RAW 264.7 cell line (PGE2 inhibition); assay type: cell-based; details: RAW264.7, 10 nM test compound, RAW 264.7 cells, interferon γ and LPS, 18 hours, read-out: Cyclooxygenase (COX) Inhibition (%) COX-2 (10 nM)
T1 construct: host or cells: RAW 264.7 cells, aspirin-pretreated, then induced with interferon gamma and LPS
T1 sequence (Q05769 18-604): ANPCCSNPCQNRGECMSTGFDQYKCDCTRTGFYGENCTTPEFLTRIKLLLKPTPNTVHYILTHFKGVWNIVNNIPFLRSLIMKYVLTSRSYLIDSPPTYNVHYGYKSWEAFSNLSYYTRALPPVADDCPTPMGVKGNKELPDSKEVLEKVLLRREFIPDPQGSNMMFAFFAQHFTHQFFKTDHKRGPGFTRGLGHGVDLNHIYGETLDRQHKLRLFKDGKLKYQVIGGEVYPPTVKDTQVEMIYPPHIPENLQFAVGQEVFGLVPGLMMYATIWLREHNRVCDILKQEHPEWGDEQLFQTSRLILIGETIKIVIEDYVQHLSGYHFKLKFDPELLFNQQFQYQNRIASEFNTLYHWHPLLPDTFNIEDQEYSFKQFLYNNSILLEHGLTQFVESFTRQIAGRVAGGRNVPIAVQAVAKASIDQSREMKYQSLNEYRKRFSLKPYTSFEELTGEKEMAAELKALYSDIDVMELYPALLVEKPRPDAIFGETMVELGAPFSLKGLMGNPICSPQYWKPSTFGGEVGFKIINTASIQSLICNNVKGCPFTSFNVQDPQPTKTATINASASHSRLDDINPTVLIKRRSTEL
Description: Each well was treated with 250 μM of aspirin and incubated at 37° C. for 2 hours. After the culture media were replaced with new culture media, the new culture media were treated with a test compound (10 nM) and incubated for 30 minutes. Then, each well was treated with interferon γ (100 units/ml) and lipopolysaccharide (LPS, 100 ng/ml) and incubated for 18 hours. The culture media were transferred to other test tubes. The concentration of PGE2 was quantified by means of the EIA kit (Cayman Chemicals).
(§1) The percentages of the COX inhibition were calculated according to the following equation: % Inhibition=(concentration of PGE2 in test compound-untreated sample−concentration of PGE2 in test compound-treated sample)/(concentration of PGE2 in test compound-untreated sample)×100

COX-1 = biological target: T2, COX-1 (Homo sapiens, UniProt P23219); assay: Assay for the COX-1 inhibitory activity using U-937 (PGE2 inhibition); assay type: cell-based; details: 1 μM test compound; U-937 human lymphoma cells; PGE2 after arachidonic acid; read-out: Cyclooxygenase (COX) Inhibition (%) COX-1 (1 μM)
T2 construct: host or cells: U-937 human lymphoma cells
Description: The collected cells were diluted with HBSS (×1, Hank's balanced salt solution) to a concentration of 1×10^6 cells/ml. 1 ml of the dilute cell solution was placed into each well of 12-well plates. 5 μl of 1 μM solution of a test compound in DMSO and 5 μl of DMSO as a control were added to the wells. The wells were incubated in CO2 incubator at 37° C. for 15 minutes. Separately, 10 mM stock solution of arachidonic acid in ethanol was diluted ten times in ethanol to prepare 1 mM solution of arachidonic acid. Arachidonic acid acts as a substrate. 10 μl of the 1 mM solution of arachidonic acid was added to each well and incubated at CO2 incubator at 37° C. for 30 minutes. The cell solution of each well was placed in a centrifuge test tube and centrifuged at 10,000 rpm at 4° C. for 5 minutes. The concentration of PGE2 in the collected cells and the supernatant was quantified by means of a monoclonal kit (Cayman Chemicals). The percentages of PGE2 inhibition in a group of the test compound-treated cells in relation to a group of the DMSO-treated cells were calculated. Based on the calculated values, the COX-1 inhibitory activities were evaluated.
as §1

T2 sequence (P23219 24-599): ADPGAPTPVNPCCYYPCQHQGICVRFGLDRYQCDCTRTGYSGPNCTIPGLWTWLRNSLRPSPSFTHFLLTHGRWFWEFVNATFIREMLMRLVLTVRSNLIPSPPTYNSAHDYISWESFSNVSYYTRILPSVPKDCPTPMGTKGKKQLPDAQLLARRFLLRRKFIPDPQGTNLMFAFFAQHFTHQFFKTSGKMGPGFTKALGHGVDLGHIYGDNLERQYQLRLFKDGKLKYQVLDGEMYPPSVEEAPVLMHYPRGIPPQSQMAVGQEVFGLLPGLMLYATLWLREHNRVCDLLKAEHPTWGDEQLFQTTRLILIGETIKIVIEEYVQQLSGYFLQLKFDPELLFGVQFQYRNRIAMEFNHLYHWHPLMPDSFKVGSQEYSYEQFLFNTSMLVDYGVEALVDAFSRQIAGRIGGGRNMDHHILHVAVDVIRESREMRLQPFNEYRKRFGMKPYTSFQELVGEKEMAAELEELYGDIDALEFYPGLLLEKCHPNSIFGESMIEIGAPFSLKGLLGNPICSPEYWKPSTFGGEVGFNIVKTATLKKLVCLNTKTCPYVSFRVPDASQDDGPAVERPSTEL

Structure (SMILES)	inhibition at 0.01 µM (COX-2)	inhibition at 1 µM (COX-1)
C#CCOc1nc(-c2ccc(OC)cc2)n(-c2ccc(S(N)(=O)=O)cc2)n1 [Example 43, 4-[3-prop-2-ynyloxy-5-(4-methoxyphenyl)-1,2,4-triazole-1-yl]-benzenesulfonamide]	16.7%	30.4%
NS(=O)(=O)c1ccc(-n2nc(OC3CCCCC3)nc2-c2ccc(F)cc2)cc1 [Example 40, 4-[3-cyclohexyloxy-5-(4-fluorophenyl)-1,2,4-triazole-1-yl]-benzenesulfonamide]	16.2%	16.2%
COc1nc(-c2ccc(F)cc2)n(-c2ccc(S(N)(=O)=O)cc2)n1 [Example 26, 4-[3-methoxy-5-(4-fluorophenyl)-1,2,4-triazole-1-yl]-benzenesulfonamide]	13.5%	44.5%
C=CCOc1nc(-c2ccc(OC)cc2)n(-c2ccc(S(N)(=O)=O)cc2)n1 [Example 52, 4-[3-allyloxy-5-(4-methoxyphenyl)-1,2,4-triazole-1-yl]-benzenesulfonamide]	33.1%	34.3%
CCCOc1nc(-c2ccc(OC)cc2)n(-c2ccc(S(N)(=O)=O)cc2)n1 [Example 35, 4-[3-propoxy-5-(4-methoxyphenyl)-1,2,4-triazole-1-yl]-benzenesulfonamide]	16.1%	23.4%
NS(=O)(=O)c1ccc(-n2nc(OCC(F)(F)F)nc2-c2ccc(F)cc2)cc1 [Example 56, 4-[3-(2,2,2-trifluoroethoxy)-5-(4-fluorophenyl)-1,2,4-triazole-1-yl]-benzenesulfonamide]	27.7%	37.2%
COc1ccc(-c2nc(OC3CCCC3)nn2-c2ccc(S(N)(=O)=O)cc2)cc1 [Example 37, 4-[3-cyclopentyloxy-5-(4-methoxyphenyl)-1,2,4-triazole-1-yl]-benzenesulfonamide]	22.3%	12%
CCOc1nc(-c2ccc(OC)cc2)n(-c2ccc(S(N)(=O)=O)cc2)n1 [Example 30, 4-[3-ethoxy-5-(4-methoxyphenyl)-1,2,4-triazole-1-yl]-benzenesulfonamide]	13.2%	16.4%
CCCOc1nc(-c2ccc(F)cc2)n(-c2ccc(S(N)(=O)=O)cc2)n1 [Example 36, 4-[3-propoxy-5-(4-fluorophenyl)-1,2,4-triazole-1-yl]-benzenesulfonamide]	17.2%	27%
COc1ccc(-c2nc(OCC(F)(F)F)nn2-c2ccc(S(N)(=O)=O)cc2)cc1 [Example 55, 4-[3-(2,2,2-trifluoroethoxy)-5-(4-methoxyphenyl)-1,2,4-triazole-1-yl]-benzenesulfonamide]	16.2%	33.1%
COc1ccc(-c2nc(OCC#N)nn2-c2ccc(S(N)(=O)=O)cc2)cc1 [Example 41, 4-[3-cyanomethoxy-5-(4-methoxyphenyl)-1,2,4-triazole-1-yl]-benzenesulfonamide]	15.5%	27.7%
COc1ccc(-c2nc(OCc3ccccc3)nn2-c2ccc(S(N)(=O)=O)cc2)cc1F [Example 50, 4-[3-benzyloxy-5-(3-fluoro-4-methoxyphenyl)-1,2,4-triazole-1-yl]-benzenesulfonamide]	16.1%	28%
CC(C)Oc1nc(-c2ccc(F)cc2)n(-c2ccc(S(N)(=O)=O)cc2)n1 [Example 48, 4-[3-isopropoxy-5-(4-fluorophenyl)-1,2,4-triazole-1-yl]-benzenesulfonamide]	9.8%	26.4%
C=CCOc1nc(-c2ccc(F)cc2)n(-c2ccc(S(N)(=O)=O)cc2)n1 [Example 54, 4-[3-allyloxy-5-(4-fluorophenyl)-1,2,4-triazole-1-yl]-benzenesulfonamide]	15.5%	26.4%
CCOc1nc(-c2ccc(OC)c(F)c2)n(-c2ccc(S(N)(=O)=O)cc2)n1 [Example 33, 4-[3-ethoxy-5-(3-fluoro-4-methoxyphenyl)-1,2,4-triazole-1-yl]-benzenesulfonamide]	10.5%	23.7%

Further lines, results first:

inhibition at 0.01 µM (COX-2)	inhibition at 1 µM (COX-1)	Structure (SMILES)
30.4%	34.3%	NS(=O)(=O)c1ccc(-n2nc(OC3CC3)nc2-c2ccccc2)cc1 [Example 58, 4-[3-cyclopropoxy-5-phenyl-1,2,4-triazole-1-yl]-benzenesulfonamide]
26.4%	22.6%	COc1ccc(-c2nc(OC(C)C)nn2-c2ccc(S(C)(=O)=O)cc2)cc1 [Example 63, 1-(4-methanesulfonylphenyl)-3-isopropoxy-5-(4-methoxyphenyl)-1H-1,2,4-triazole]
9.5%	31.2%	CCSc1nc(-c2ccccc2)n(-c2ccc(S(N)(=O)=O)cc2)n1 [Example 34, 4-(3-ethylthio-5-phenyl-1,2,4-triazole-1-yl)-benzenesulfonamide]
36.4%	11.1%	CS(=O)(=O)c1ccc(-n2nc(O)nc2-c2ccccc2)cc1 [Example 22, 1-(4-methanesulfonylphenyl)-5-phenyl-1H-1,2,4-triazole-3-ol]
34.2%	33.1%	CCOc1nc(-c2ccc(OC)cc2)n(-c2ccc(S(C)(=O)=O)cc2)n1 [Example 61, 1-(4-methanesulfonylphenyl)-3-ethoxy-5-(4-methoxylphenyl)-1H-1,2,4-triazole]
10.6%	25.4%	CC(C)Oc1nc(-c2ccccc2)n(-c2ccc(S(N)(=O)=O)cc2)n1 [Example 47, 4-(3-isopropoxy-5-phenyl-1,2,4-triazole-1-yl)-benzenesulfonamide]
23.4%	21.4%	NS(=O)(=O)c1ccc(-n2nc(OCc3ccccc3)nc2-c2ccccc2)cc1 [Example 51, 4-(3-benzyloxy-5-phenyl-1,2,4-triazole-1-yl)-benzenesulfonamide]
12.3%	37.4%	NS(=O)(=O)c1ccc(-n2nc(O)nc2-c2ccc(Br)cc2)cc1 [Example 19, 4-[3-hydroxy-5-(4-bromophenyl)-1,2,4-triazole-1-yl]-benzenesulfonamide]
16.2%	20.4%	C=CCOc1nc(-c2ccccc2)n(-c2ccc(S(N)(=O)=O)cc2)n1 [Example 53, 4-(3-allyloxy-5-phenyl-1,2,4-triazole-1-yl)-benzenesulfonamide]
6.7%	19.5%	NS(=O)(=O)c1ccc(-n2nc(O)nc2-c2ccc(F)cc2)cc1 [Example 18, 4-[3-hydroxy-5-(4-fluorophenyl)-1,2,4-triazole-1-yl]-benzenesulfonamide]
26.6%	21.4%	NS(=O)(=O)c1ccc(-n2nc(OCCCl)nc2-c2ccccc2)cc1 [Example 57, 4-[3-(2-chloroethoxy)-5-phenyl-1,2,4-triazole-1-yl]-benzenesulfonamide]
11.2%	35.5%	COc1ccc(-c2nc(O)nn2-c2ccc(S(N)(=O)=O)cc2)cc1 [Example 16, 4-[3-hydroxy-5-(4-methoxyphenyl)-1,2,4-triazole-1-yl]-benzenesulfonamide]
25.4%	26%	CCOc1nc(-c2ccccc2)n(-c2ccc(S(C)(=O)=O)cc2)n1 [Example 62, 1-(4-methanesulfonylphenyl)-3-ethoxy-5-phenyl-1H-1,2,4-triazole]
24.5%	33.1%	CC(C)Sc1nc(-c2ccccc2)n(-c2ccc(S(N)(=O)=O)cc2)n1 [Example 49, 4-(3-isopropylthio-5-phenyl-1,2,4-triazole-1-yl)-benzenesulfonamide]
